The values below come from US6727390B2, “Fluorous phosphines and phosphine oxides” (University of Pittsburgh, priority 2001, dated 2004).

Structures are written as SMILES.

A short description of data set [1]: Liquid-liquid partition coefficients between FC-72 and organic solvents (partitioning followed by HPLC analysis). The format is physicochemical. The conditions noted are these: room temperature; for Partition coefficient FC-72/THF (P = cfluorous phase/corganic phase): 50/50 (v/v) FC-72/THF; for Partition coefficient FC-72/methanol (P = cfluorous phase/corganic phase): 50/50 (v/v) FC-72/methanol; for Partition coefficient FC-72/toluene (P = cfluorous phase/corganic phase): 50/50 (v/v) FC-72/toluene. How it is done: Liquid-liquid partition coefficients for all six phosphines between FC-72 and three organic solvents (methanol, THF, and toluene) were also measured. The procedure involved a simple partitioning followed by HPLC analysis.

Regarding `FC(F)(F)C(F)(F)C(F)(F)C(F)(F)C(F)(F)C(F)(F)CCc1ccc(P(c2ccc(CCC(F)(F)C(F)(F)C(F)(F)C(F)(F)C(F)(F)C(F)(F)F)cc2)c2ccc(CCC(F)(F)C(F)(F)C(F)(F)C(F)(F)C(F)(F)C(F)(F)F)cc2)cc1` [Compound 1a, Tris-[4-(3,3,4,4,5,5,6,6,7,7,8,8,8-tridecafluorooctyl)phenyl]phosphane], the melting point – broadly, the temperature of the solid-liquid transition – was in the range of 49.9 to 52.4 °C. In data set [1], the “Partition coefficient FC-72/THF (P = cfluorous phase/corganic phase)” value came to 0.08, the “Partition coefficient FC-72/methanol (P = cfluorous phase/corganic phase)” value turned out to be 30.03 and the “Partition coefficient FC-72/toluene (P = cfluorous phase/corganic phase)” value was 0.75.

Regarding `FC(F)(F)C(F)(F)C(F)(F)C(Cc1ccc(P(c2ccc(CC(C(F)(F)F)(C(F)(F)F)C(F)(F)C(F)(F)C(F)(F)F)cc2)c2ccc(CC(C(F)(F)F)(C(F)(F)F)C(F)(F)C(F)(F)C(F)(F)F)cc2)cc1)(C(F)(F)F)C(F)(F)F` [Compound 5a, Tris-[4-(3,3,4,4,5,5,5-heptafluoro-2,2-bis-trifluoromethylpentyl)phenyl]phosphane], in data set [1], the “Partition coefficient FC-72/THF (P = cfluorous phase/corganic phase)” value came to 0.51, the “Partition coefficient FC-72/methanol (P = cfluorous phase/corganic phase)” value stood at 18.48 and the “Partition coefficient FC-72/toluene (P = cfluorous phase/corganic phase)” value was 6.84.

As for `FC(F)(F)C(F)(F)C(F)(F)C(Cc1ccc(P(c2ccccc2)c2ccc(CC(C(F)(F)F)(C(F)(F)F)C(F)(F)C(F)(F)C(F)(F)F)cc2)cc1)(C(F)(F)F)C(F)(F)F` [Compound 5b, Phenyl-bis-[4-(3,3,4,4,5,5,5-heptafluoro-2,2-bis-rifluoromethylpentyl)phenyl]phosphane], in data set [1], the “Partition coefficient FC-72/THF (P = cfluorous phase/corganic phase)” value amounted to 1.05, the “Partition coefficient FC-72/methanol (P = cfluorous phase/corganic phase)” value worked out at 3.34 and the “Partition coefficient FC-72/toluene (P = cfluorous phase/corganic phase)” value amounted to 0.18.

Regarding `FC(F)(F)C(F)(F)C(F)(F)C(F)(F)C(F)(F)C(F)(F)CCc1ccc(P(c2ccccc2)c2ccccc2)cc1` [Compound 1c, Diphenyl-[4-(3,3,4,4,5,5,6,6,7,7,8,8,8-tridecafluorooctyl)phenyl]phosphane], in data set [1], the “Partition coefficient FC-72/THF (P = cfluorous phase/corganic phase)” value worked out at 0.02, the “Partition coefficient FC-72/methanol (P = cfluorous phase/corganic phase)” value amounted to 0.12 and the “Partition coefficient FC-72/toluene (P = cfluorous phase/corganic phase)” value is listed as 0.05.

With `FC(F)(F)C(F)(F)C(F)(F)C(Cc1ccc(P(c2ccccc2)c2ccccc2)cc1)(C(F)(F)F)C(F)(F)F` [Compound 5c, Diphenyl-[4-(3,3,4,4,5,5,5-heptafluoro-2,2-bis-trifluoromethylpentyl)phenyl]phosphane], in data set [1], the “Partition coefficient FC-72/THF (P = cfluorous phase/corganic phase)” value turned out to be 0.01, the “Partition coefficient FC-72/methanol (P = cfluorous phase/corganic phase)” value turned out to be 0.09 and the “Partition coefficient FC-72/toluene (P = cfluorous phase/corganic phase)” value was determined as 0.12.

On to `FC(F)(F)C(F)(F)C(F)(F)C(F)(F)C(F)(F)C(F)(F)CCc1ccc(P(c2ccccc2)c2ccc(CCC(F)(F)C(F)(F)C(F)(F)C(F)(F)C(F)(F)C(F)(F)F)cc2)cc1` [Compound 1b, Phenyl-bis-[4-(3,3,4,4,5,5,6,6,7,7,8,8,8-tridecafluorooctyl)phenyl]phosphane], for which the melting point was in the range of 42.1 to 43.1 °C. In data set [1], the “Partition coefficient FC-72/THF (P = cfluorous phase/corganic phase)” value was 0.05, the “Partition coefficient FC-72/methanol (P = cfluorous phase/corganic phase)” value is on record as 1.86 and the “Partition coefficient FC-72/toluene (P = cfluorous phase/corganic phase)” value amounted to 0.05.
